As a reminder, the IC50 is the concentration needed to halve the response being measured.

SMILES strings stand for the structures. Where two headings read alike, the source gives them in different places.

Among the data in patent US10189826B2, “Heterocyclic compounds and methods of use” (Medivation Technologies LLC, priority 2015, dated 2019) are IC50 values, retold here.

The test system of data set [1] is SREBP-2 transcriptional activity (SREBP2 cleavage) in HepG2_LSSprom cells. The experiment in a line: Luciferase reporter driven by a SREBP-2 specific promoter in HepG2_LSSprom cells. It counts as cell-based. Conditions: read-out: SREBP2 Cleavage (IC50 μM) 24 h. How it is done:
Dose response effects were measured of Compounds on the transcriptional activity of a Luciferase reporter driven by a SREBP-2 specific promoter in HepG2_LSSprom cells.
(§1) HepG2_LSSprom cells (SwitchGear Genomics, cat# C711010L) were cultured in DMEM with 10% of fetal bovine serum (FBS), supplemented with Puromycin (1 μg/mL), 1% Penicillin/Streptomycin (Pen-Strep), 37° C., humidified, 95% air and 5% CO2. Culture media was refreshed every 2 or 3 days. Cells were used between passage number 6-12.
For luminescence assays, cells were plated out at 20,000 cells/well in white 96 well plates in DMEM plus 10% FBS and 1% Pen-Strep without puromycin. After 1 day, cells were treated with Compound by diluting the drug in culture medium without FBS to a final concentration of 0.625, 1.25, 2.5, 3.75, 5 and 10 μM. Drug was prepared by dilutions of 10 mM stock aliquots. As control was used culture medium without FBS plus DMSO. Treatments with Compound were maintained for 6 h, or 24 h, until the luciferase assay was carried out.
After 6 h of treatments with Compound, the luciferase assay was performed. Briefly, the assay solution (buffer+substrate) was prepare just prior to use. To each well 100 μL of assay solution was added. The 96-well plate was then gently mix for 2 min and incubated for 30 min at RT protected from light. The luminescence was read using a Synergy 4 (Biotek) equipment recording luminescence with sensibility set up at 150.
(§2) Five independent experiments were carried out for both luciferase and cytotoxicity assay. In each experiment, three wells were use per condition and the results are represented as means±SEM.
For luciferase assay, Vehicle (no treatment) was taken as 100% of luciferase activity. This value represents the SREBP-2 transcriptional activity for the vehicle condition and was taken as 100% of SREBP-2 cleaved. The percentage for each treatment was calculated normalizing against the vehicle control. The graphics were made using the GraphPad Prism ver. 6.05 software. Half of maximal inhibitory concentration (IC50) of the effect of Compound on SREBP was obtain by nonlinear fit regression of mean normalized values vs. Compound concentration using the log(inhibitor) vs. response−Variable slope (four parameters) tool.
A general note: In a reporter assay the amount or activity of a reporter protein is the signal.

Data set [2] in a line: Cytotoxicity assay (LDH release) in HepG2_LSSprom cells. It counts as cell-based. To be noted: human, 24 h treatment, LDH release. How it is done:
as §1
For cytotoxicity assays, cells were plated out at 20,000 cells/well in transparent 96 well plates in DMEM plus 10% FBS and 1% Pen-Strep without puromycin. After 1 day, cells were treated with Compound by diluting in culture medium without FBS to a final concentration of 0.625, 1.25, 2.5, 3.75, 5 and 10 μM. Compound was prepared by dilutions of 10 mM stock aliquots. As a negative control culture medium was used without FBS plus DMSO. As maximum LDH release control (Lysis control) a lysis buffer provided by the kit manufacturer was used. Treatments with Compound were maintained for 6 h, or 24 h, in cell culture medium without serum until the cytotoxicity assay was started.
The cytotoxicity assay was performed according to the manufacturer's instructions. As maximum LDH release control (Lysis control) 3 wells per plate were treated with 10 μL of lysis buffer 45 min before the treatment was over. Briefly, after the 6 h, or 24 h, of treatment, 50 μL of media from each well was transferred to a new 96-well plate. To the transferred media, 50 μL of reconstituted substrate mix was added. The plates were covered from light and incubated at RT for 10 min. Then, 50 μL of stop solution was added to each well. The plates were then read using a Synergy 4 (Biotek) equipment recording the absorbance at 490 nm.
as §2
For cytotoxicity assay, Lysis control was taken as 100%/o of LDH release. The vehicle values were taken as basal LDH release and were subtracted to all the treatments (including vehicle itself) having this value as 0% of LDH release. The LDH release for the treatments was calculated respect to the 100% of LDH release of Lysis control normalized against vehicle. All the negatives values were taken as 0% of cytotoxicity. The graphics were made using the Graph Prism ver. 6.05 software.
(In general: LDH in the medium is a marker of cell lysis.)

Where [3] appears, read: 24 h, 24 h treatment, HepG2_LSSprom cells.

In the case of `CC(C)(C)c1cc(-c2cc(-c3ccc(C(=O)N4CCC[C@H](N)C4)cc3Cl)cs2)ccn1` [Compound 21b, (S)-(3-aminopiperidin-1-yl)(4-(5-(2-(tert-butyl)pyridin-4-yl)thiophen-3-yl)-3-chlorophenyl)methanone], the IC50 in data set [1] (setting [3]) is > 3 µM. For the same molecule, the IC50 at 24 h in data set [2] (HepG2 LSSprom cells) was > 10 µM.

As for `CC(C)(C)c1cc(-c2cc(-c3ccc(C(=O)N4CCOCC4)cc3Cl)cs2)ccn1` [Compound 22, 4-{4-[5-(2-tert-butylpyridin-4-yl)thiophen-3-yl]-3-chlorobenzoyl}morpholine], the IC50 in data set [1] (setting [3]) stood at 0.82 µM. Besides, in data set [2] (HepG2 LSSprom cells), the IC50 at 24 h was > 3 µM.

Consider `CC(C)(C)c1cc(-c2cc(-c3ccc(C(=O)Nc4ccccc4)cc3Cl)cs2)ccn1` [Compound 23, 4-[5-(2-tert-butylpyridin-4-yl)thiophen-3-yl]-3-chloro-N-phenylbenzamide], for which the IC50 in data set [1] (24 h) stood at 0.48 µM. Further, the IC50 at 24 h in data set [2] (HepG2 LSSprom cells) is > 10 µM.

`CC(C)(C)c1cc(-c2nc(-c3ccc(C(=O)N4CCC(F)(F)CC4)cc3Cl)c[nH]2)ccn1` [Compound 24, 2-tert-butyl-4-{4-[2-chloro-4-(4,4-difluoropiperidine-1-carbonyl)phenyl]-1H-imidazol-2-yl}pyridine]: the IC50 in data set [1] (setting [3]) was > 3 µM; in data set [1] (24 h treatment, HepG2_LSSprom cells) it was 2.7 µM. For the same molecule, the IC50 at 24 h in data set [2] (HepG2 LSSprom cells) is > 10 µM.

For the molecule `CC(C)(C)c1cc(-c2nc(-c3ccc(C(=O)N4CCCCC4)cc3Cl)c[nH]2)ccn1` [Compound 25, 2-tert-butyl-4-{4-[2-chloro-4-(piperidine-1-carbonyl)phenyl]-1H-imidazol-2-yl}pyridine], the IC50 in data set [1] (setting [3]) was found to be 0.62 µM. For the same molecule, the IC50 at 24 h in data set [2] (HepG2 LSSprom cells) is > 10 µM.

For the molecule `CN1CCc2cc(-c3csc(-c4ccnc(C(C)(C)C)c4)c3)ccc2C1=O` [Compound 26, 6-[5-(2-tert-butylpyridin-4-yl)thiophen-3-yl]-2-methyl-1,2,3,4-tetrahydroisoquinolin-1-one], the IC50 in data set [1] (setting [3]) is > 3 µM. Moreover, the IC50 at 24 h in data set [2] (HepG2 LSSprom cells) was > 10 µM.

Regarding `CC(C)(C)OC(=O)N1CCN(C(=O)c2ccc(-c3csc(-c4ccnc(C(C)(C)C)c4)c3)c(Cl)c2)CC1` [Compound 27, tert-butyl 4-{4-[5-(2-tert-butylpyridin-4-yl)thiophen-3-yl]-3-chlorobenzoyl}piperazine-1-carboxylate], the IC50 in data set [1] (setting [3]) is 0.68 µM. In data set [2] (HepG2 LSSprom cells), the IC50 at 24 h was > 10 µM.

On to `CC(C)(C)c1cc(-c2cc(-c3ccc(C(=O)N4CCNCC4)cc3Cl)cs2)ccn1` [Compound 28, 1-{4-[5-(2-tert-butylpyridin-4-yl)thiophen-3-yl]-3-chlorobenzoyl}piperazine], for which the IC50 in data set [1] (setting [3]) was > 3 µM. Further, in data set [2] (HepG2 LSSprom cells), the IC50 at 24 h is > 10 µM.

Regarding `CC(=O)N1CCN(C(=O)c2ccc(-c3csc(-c4ccnc(C(C)(C)C)c4)c3)c(Cl)c2)CC1` [Compound 29, 1-(4-{4-[5-(2-tert-butylpyridin-4-yl)thiophen-3-yl]-3-chlorobenzoyl}piperazin-1-yl)ethan-1-one], the 50% inhibitory concentration (IC50) in data set [1] (setting [3]) was found to be 1.4 µM. Further, the IC50 at 24 h in data set [2] (HepG2 LSSprom cells) is > 10 µM.

With `CC(C)(C)c1cc(-c2cc(-c3ccc(C(=O)N4CCN(S(C)(=O)=O)CC4)cc3Cl)cs2)ccn1` [Compound 30, 1-{4-[5-(2-tert-butylpyridin-4-yl)thiophen-3-yl]-3-chlorobenzoyl}-4-methane sulfonylpiperazine], the IC50 in data set [1] (setting [3]) was determined as 2.5 µM. In addition, the IC50 at 24 h in data set [2] (HepG2 LSSprom cells) was > 10 µM.

On to `CC(C)N(C(=O)c1ccc(-c2csc(-c3ccnc(C(C)(C)C)c3)c2)c(Cl)c1)C(C)C` [Compound 33, 4-[5-(2-tert-butylpyridin-4-yl)thiophen-3-yl]-3-chloro-N,N-bis(propan-2-yl) benzamide], for which the IC50 in data set [1] (setting [3]) was 0.21 µM. The IC50 at 24 h in data set [2] (HepG2 LSSprom cells) was > 10 µM.

Take `CC(C)N1CCc2cc(-c3csc(-c4ccnc(C(C)(C)C)c4)c3)ccc2C1=O` [Compound 35, 6-[5-(2-tert-butylpyridin-4-yl)thiophen-3-yl]-2-(propan-2-yl)-1,2,3,4-tetrahydroisoquinolin-1-one]: in data set [1] (setting [3]), the IC50 is 2.4 µM. Moreover, in data set [2] (HepG2 LSSprom cells), the IC50 at 24 h was > 10 µM.

Consider `CC(C)(C)OC(=O)NC1CCN(C(=O)c2ccc(-c3csc(-c4ccnc(C(C)(C)C)c4)c3)c(Cl)c2)CC1` [Compound 37, tert-butyl N-(1-{4-[5-(2-tert-butylpyridin-4-yl)thiophen-3-yl]-3-chlorobenzoyl}piperidin-4-yl)carbamate], for which the IC50 in data set [1] (setting [3]) turned out to be 0.91 µM. Besides, in data set [2] (HepG2 LSSprom cells), the IC50 at 24 h was > 10 µM.

Consider `CC(=O)NC1CCN(C(=O)c2ccc(-c3csc(-c4ccnc(C(C)(C)C)c4)c3)c(Cl)c2)CC1` [Compound 38, N-(1-{4-[5-(2-tert-butylpyridin-4-yl)thiophen-3-yl]-3-chlorobenzoyl}piperidin-4-yl) acetamide], for which the IC50 in data set [1] (setting [3]) worked out at 2.1 µM. Besides, the IC50 at 24 h in data set [2] (HepG2 LSSprom cells) was > 10 µM.

As to `CCN1CCN(C(=O)c2ccc(-c3csc(-c4ccnc(C(C)(C)C)c4)c3)c(Cl)c2)CC1=O` [Compound 39, 4-{4-[5-(2-tert-butylpyridin-4-yl)thiophen-3-yl]-3-chlorobenzoyl}-1-ethylpiperazin-2-one], in data set [1] (24 h), the IC50 is 6.2 µM. Besides, in data set [2] (HepG2 LSSprom cells), the IC50 at 24 h was > 10 µM.

With `CC(C)(C)c1cc(-c2csc(-c3ccc(C(=O)N4CCC(F)(F)CC4)cc3Cl)c2)ccn1` [Compound 40, 2-tert-butyl-4-{5-[2-chloro-4-(4,4-difluoropiperidine-1-carbonyl)phenyl]thiophen-3-yl}pyridine], the IC50 in data set [1] (setting [3]) was 0.15 µM. In addition, the IC50 at 24 h in data set [2] (HepG2 LSSprom cells) is > 10 µM.

Turning to `CN(C(=O)c1ccc(-c2csc(-c3ccnc(C(C)(C)C)c3)c2)c(Cl)c1)c1ccccc1` [Compound 41, 4-[5-(2-tert-butylpyridin-4-yl)thiophen-3-yl]-3-chloro-N-methyl-N-phenyl benzamide], in data set [1] (setting [3]), the IC50 worked out at 0.39 µM. The IC50 at 24 h in data set [2] (HepG2 LSSprom cells) was > 10 µM.

For `CC(C)(C)c1cc(-c2cc(-c3ccc(C(=O)N4CCC4)cc3Cl)cs2)ccn1` [Compound 42, 4-{4-[4-(azetidine-1-carbonyl)-2-chlorophenyl]thiophen-2-yl}-2-tert-butylpyridine], the IC50 in data set [1] (24 h) stood at 0.84 µM. In addition, the IC50 at 24 h in data set [2] (HepG2 LSSprom cells) was > 10 µM.

Consider `CC(C)(C)c1cc(-c2cc(-c3ccc(C(=O)N4CC5(COC5)C4)cc3Cl)cs2)ccn1` [Compound 43, 6-{4-[5-(2-tert-butylpyridin-4-yl)thiophen-3-yl]-3-chlorobenzoyl}-2-oxa-6-azaspiro[3.3]heptane], for which the IC50 in data set [1] (setting [3]) was 3.8 µM. For the same molecule, the IC50 at 24 h in data set [2] was > 10 µM.

For `CCOC(=O)NC1CCCN(C(=O)c2ccc(-c3csc(-c4ccnc(C(C)(C)C)c4)c3)c(Cl)c2)C1` (stereo not drawn) [Compound 44, ethyl N-(1-{4-[5-(2-tert-butylpyridin-4-yl)thiophen-3-yl]-3-chlorobenzoyl}piperidin-3-yl)carbamate], in data set [1] (24 h), the IC50 stood at 0.44 µM. The IC50 at 24 h in data set [2] (HepG2 LSSprom cells) is > 10 µM.

In the case of `CCOC(=O)N1CCN(C(=O)c2ccc(-c3csc(-c4ccnc(C(C)(C)C)c4)c3)c(Cl)c2)CC1` [Compound 45, ethyl 4-{4-[5-(2-tert-butylpyridin-4-yl)thiophen-3-yl]-3-chlorobenzoyl}piperazine-1-carboxylate], the IC50 in data set [1] (24 h) is 1.8 µM. Further, the IC50 at 24 h in data set [2] (HepG2 LSSprom cells) is > 10 µM.

With `CC(C)(C)C(=O)N1CCN(C(=O)c2ccc(-c3csc(-c4ccnc(C(C)(C)C)c4)c3)c(Cl)c2)CC1` [Compound 46, 1-(4-{4-[5-(2-tert-butylpyridin-4-yl)thiophen-3-yl]-3-chlorobenzoyl}piperazin-1-yl)-2,2-dimethylpropan-1-one], the IC50 in data set [1] (setting [3]) came to 1.3 µM. Besides, the IC50 at 24 h in data set [2] (HepG2 LSSprom cells) was > 10 µM.
